Experimental data taken from publication PMC8580319, “Dual activities of ACC synthase: Novel clues regarding the molecular evolution of ACS genes” (Science Advances, 2021).

How the values were obtained:
MdACS1 = molecular target: T1, MdACS1 (Malus domestica, UniProt P37821); assay: pyruvate formation, […],4-dinitrophenylhydrazine, A520; type: biochemical; conditions: Cβ-S lyase activity; 4 mM L-cystine, 100 μM PLP, 30°C
T1 construct: gene ACS-1; recombinant, His or GST tag, from E. coli
T1 sequence (P37821 1-473): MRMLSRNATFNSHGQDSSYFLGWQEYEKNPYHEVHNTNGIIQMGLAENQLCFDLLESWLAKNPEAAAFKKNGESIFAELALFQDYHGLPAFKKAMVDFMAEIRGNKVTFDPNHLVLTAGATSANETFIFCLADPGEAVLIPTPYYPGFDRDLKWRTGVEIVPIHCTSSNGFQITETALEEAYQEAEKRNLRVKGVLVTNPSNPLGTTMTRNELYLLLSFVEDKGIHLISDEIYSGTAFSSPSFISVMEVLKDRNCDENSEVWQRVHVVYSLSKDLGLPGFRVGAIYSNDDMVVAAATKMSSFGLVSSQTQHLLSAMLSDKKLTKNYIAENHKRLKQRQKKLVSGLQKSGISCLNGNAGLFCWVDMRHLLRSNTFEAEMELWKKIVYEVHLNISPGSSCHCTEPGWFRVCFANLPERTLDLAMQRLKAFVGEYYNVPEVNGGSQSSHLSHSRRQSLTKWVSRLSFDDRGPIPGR

AtACS7 = molecular target: T2, AtACS7 (Arabidopsis thaliana, UniProt Q9STR4, Q98A); assay: as above; type: biochemical; conditions: Cβ-S lyase activity; 4 mM L-cystine, 100 μM PLP, 30°C
T2 construct: gene ACS7; recombinant from E. coli Rosetta 2 (DE3) pLysS; pET-28a (His) or pGEX-6p-1 (GST); His-tagged protein for crystals; dimer
T2 sequence (Q9STR4 1-447 Q98A): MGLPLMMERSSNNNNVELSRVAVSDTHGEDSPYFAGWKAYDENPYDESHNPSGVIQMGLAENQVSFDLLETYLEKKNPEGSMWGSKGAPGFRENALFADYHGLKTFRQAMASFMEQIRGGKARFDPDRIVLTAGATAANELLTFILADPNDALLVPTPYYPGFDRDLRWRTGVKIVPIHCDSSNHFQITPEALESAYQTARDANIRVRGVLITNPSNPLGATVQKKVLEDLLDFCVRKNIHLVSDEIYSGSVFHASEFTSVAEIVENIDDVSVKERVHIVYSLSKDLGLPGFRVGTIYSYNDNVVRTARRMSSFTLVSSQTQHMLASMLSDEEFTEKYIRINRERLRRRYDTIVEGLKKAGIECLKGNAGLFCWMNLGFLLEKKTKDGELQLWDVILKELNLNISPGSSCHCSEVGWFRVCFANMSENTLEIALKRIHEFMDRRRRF

N[C@@H](CSSC[C@H](N)C(=O)O)C(=O)O [L-cystine]
pyruvate formation, 2,4-dinitrophenylhydrazine, A520 (MdACS1): MdACS1 indeed had both ACS and Cβ-S lyase activities in vitro | pyruvate formation, 2,4-dinitrophenylhydrazine, A520 (AtACS7): the mutant had high in vitro Cβ-S lyase activity
